Assay results: paper PMC7536148, “Interactions of zearalanone, α-zearalanol, β-zearalanol, zearalenone-14-sulfate, and zearalenone-14-glucoside with serum albumin” (Mycotoxin Research, 2020)
Values joined by “and” are separate entries in the source; they are usually repeats but may differ in a detail not shown here. Equal entries are not always repeated.

How the values were obtained:
[1] = molecular target: T1, HSA (Homo sapiens, UniProt P02768); assay: High-performance affinity chromatography on HSA-coated column; assay type: binding; conditions: Chiralpak HSA column, isopropanol / 0.01 mol/L ammonium acetate pH 7.0 (15:85 v/v%), 0.5 mL/min, room temperature
T1 construct: purchased Daicel Chiralpak HSA, 50 × 3.0 mm, 5 μm
T1 sequence (P02768 25-609): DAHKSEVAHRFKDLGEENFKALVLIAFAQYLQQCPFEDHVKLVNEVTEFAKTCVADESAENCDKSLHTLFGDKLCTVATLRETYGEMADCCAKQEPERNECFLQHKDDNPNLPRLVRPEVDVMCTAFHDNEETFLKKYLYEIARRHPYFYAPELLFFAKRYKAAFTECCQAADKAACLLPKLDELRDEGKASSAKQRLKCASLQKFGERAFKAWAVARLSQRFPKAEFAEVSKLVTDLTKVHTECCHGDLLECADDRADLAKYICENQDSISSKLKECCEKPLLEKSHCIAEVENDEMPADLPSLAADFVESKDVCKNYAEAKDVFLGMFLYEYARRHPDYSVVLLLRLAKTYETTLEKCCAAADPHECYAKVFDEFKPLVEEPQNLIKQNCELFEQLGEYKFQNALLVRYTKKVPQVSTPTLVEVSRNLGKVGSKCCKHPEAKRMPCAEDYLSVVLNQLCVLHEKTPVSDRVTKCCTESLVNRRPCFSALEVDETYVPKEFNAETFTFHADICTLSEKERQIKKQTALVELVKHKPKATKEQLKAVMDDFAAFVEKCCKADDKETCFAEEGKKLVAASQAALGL
Experimental: HPAC was performed with a HSA-coated column (Faisal et al. [2018]). The HPLC system (Jasco, Tokyo, Japan) used for the analysis included an autosampler (AS-4050), a binary pump (PU-4180), and a diode-array detector (MD-4017). A 5-μL volume of samples (ZAN: 200 μmol/L; ZEN, α-ZAL, β-ZAL, and Z14S: 100 μmol/L; Z14G: 50 μmol/L) was driven through a pre-column filter (Waters, Milford, MA, USA) linked to an immobilized HSA-coated HPAC column (Chiralpak® HSA, 50 × 3.0 mm, 5 μm; Daicel, Tokyo, Japan). The isocratic elution was performed with 0.5-mL/min flow rate at room temperature. The mobile phase contained isopropanol (HPLC grade; VWR, Debrecen, Hungary) and 0.01 mol/L pH 7.0 ammonium acetate buffer (15:85 v/v%). Mycotoxins were detected at 235 nm, and chromatograms were evaluated with ChromNAV software.

[2] = pigs, cited from earlier work
[3] = test system: CaCo-2 cells; design: method as in Cirlini et al. 2016; conditions: ref Cirlini et al. 2016; cited from earlier work
[4] = molecular target: T2, warfarin-HSA complex (Homo sapiens, UniProt P02768); assay: Effect of mycotoxins on warfarin-HSA interaction (warfarin fluorescence); assay type: binding; conditions: warfarin 1 μmol/L, HSA 3.5 μmol/L, mycotoxin 0-15 μmol/L, PBS pH 7.4, λex = 317 nm
T2 construct: purchased Sigma-Aldrich
T2 sequence (P02768 25-609, one chain of several): as the sequence (P02768 25-609) above
Experimental: (§1) Fluorescence spectroscopic measurements were carried out employing a Hitachi F-4500 fluorescence spectrophotometer (Hitachi, Tokyo, Japan) to investigate the effect of increasing mycotoxin concentrations on the fluorescence signal of albumins as well as on the emission spectrum of warfarin-HSA complex. Our studies were executed in phosphate-buffered saline (PBS, pH 7.4; 8.00 g/L NaCl, 0.20 g/L KCl, 1.81 g/L Na2HPO4 × 2H2O, 0.24 g/L KH2PO4) at room temperature, in the presence of air.
(§2) For spectral correction of fluorescence emission intensities, absorption spectra of mycotoxins were also recorded applying a Jasco-V730 spectrophotometer (Jasco, Tokyo, Japan). The inner-filter effect of mycotoxins was corrected as described previously (Hu and Liu [2015]; Faisal et al. [2018]):1 Icor=Iobs×e^Aex+Aem/2 where Icor and Iobs indicate the corrected and observed fluorescence emission intensities, respectively. Aex and Aem denote the absorbance of mycotoxins at the excitation and emission wavelengths used, respectively.
To test the effects of ZEN metabolites on warfarin-HSA interaction, our previously reported method was applied (Faisal et al. [2018]; Fliszár-Nyúl et al. [2019]). In this experiment, the fluorescence emission signal of warfarin (1 μmol/L; λex = 317 nm, λem = 379 nm) was examined in the presence of HSA (3.5 μmol/L) without and with mycotoxins (0, 1, 2, 3, 4, 5, 6, 8, 10, and 15 μmol/L) in PBS (pH 7.4). Under these conditions, approximately 70% of warfarin is albumin-bound.

[5] = test system: human, bovine, porcine, and rat serum albumins; assay: Fluorescence quenching, statements on all albumins tested together; assay type: binding; conditions: albumins 2 μmol/L, mycotoxin 0-10 μmol/L, PBS, λex = 295 nm
Experimental: as §1, §2
To investigate the stability of mycotoxin-albumin complexes, mycotoxin-induced quenching effects on the intrinsic fluorescence of albumins were tested. The emission signal of albumins (2 μmol/L; λex = 295 nm; […]) were measured in the presence of increasing concentrations of mycotoxins (0.0, 1.0, 2.0, 3.0, 4.0, 5.0, 6.0, 7.0, 8.0, 9.0, and 10.0 μmol/L). […]

[6] = design: method as in Sun et al. 2019; conditions: rats, ref Sun et al. 2019; cited from earlier work

In the case of C[C@H]1CCCC(=O)CCC/C=C/c2cc(O[C@@H]3O[C@H](CO)[C@@H](O)[C@H](O)[C@H]3O)cc(O)c2C(=O)O1 [Z14G, Zearalenone-14-O-β-D-glucoside], the “retention time (tR) from HSA-HPAC affinity column” value [1] is listed as 1.7 min and 1.650 min, the “fraction of the orally administered compound absorbed” value ([2]; oral, ref Catteuw et al. 2019) is listed as “approximately 61%” and the “intestinal hydrolysis to ZEN after oral administration” value ([2]; ref Binder et al. 2017) is listed as “complete intestinal hydrolysis to ZEN”. The “absorption in CaCo-2 cell model” value [3] was “considerably lower compared with ZEN”, the “effect on fluorescence emission signal of warfarin at 379 nm (warfarin-HSA interaction)” value [4] was “did not affect the fluorescence at 379 nm” and the “effect on the emission signals of albumins (quenching)” value [5] was “did not affect the emission signals of albumins”. The “plasma concentrations after oral administration” value [6] was “low plasma concentrations”.
